Usually IC50 stands for the concentration at which inhibition is half-maximal.

SMILES strings stand for the structures. Read-outs that look alike come from different tables or passages of the source.

One molecule from patent US6552027B2, “Quinazolines for treating brain tumor” (Parker Hughes Institute, priority 1998, dated 2003) can be followed below.

The test system of one series is U373 glioblastoma cells. Put plainly: Glioblastoma cell invasion through Matrigel matrix (Boyden chambers). Type of series: cell-based. The conditions noted are these: Homo sapiens, U373 MG. The procedure: The in vitro invasiveness of glioblastoma cells was assayed using a previously published method which employs Matrigel-coated Costar 24-well transwell cell culture chambers (“Boyden chambers”) with 8.0-μm-pore polycarbonate filter inserts (Albini, A., Iwamoto, Y., Kleinman, H. K., Martin, G. R., Aaronson, S. A., Kozlowski, J. M., and McEwan, R. N., 1987, Cancer Res., 47:3239-3245). The chamber filters were coated with 50 μg/ml of Matrigel matrix, incubated overnight at room temperature under a laminar flow hood and stored at 4° C. Matrigel matrix is made up of several components of the extralcellular matrix (ECM), including collagens, laminin and proteo-glycans
On the day of the experiment, the coated inserts were rehydrated with 0.5 ml serum-free DMEM containing 0.1% bovine serum albumin for 1-2 hours. To study the effects of quinazoline derivatives on invasiveness of glioblastoma cells, exponentially growing cells were incubated overnight with WHI-P97, WHI-P131 and WHI-P154 at various concentrations ranging from 1 μM to 50 μM. The cells were trypsinized, washed twice with serum-free DMEM containing BSA, counted and resuspended at 1×10^5 cells/ml. 0.5 ml cell suspension containing 5×10^4 cells in a serum-free DMEM containing quinazoline compounds or vehicle was added to the Matrigel-coated and rehydrated filter inserts. Next, 750 μl of NIH fibroblast conditioned medium was placed as a chemoattractant in 24-well plates and the inserts were placed in wells and incubated at 37° C. for 48 hours. […] The invasive cells that migrated to the lower side of the filter were fixed, stained with Hema-3 solutions and counted under microscope. Five to 10 random fields per filter were counted to determine the mean (±SE) values for the invasive fraction. The invasive fractions of cells treated with quinazoline derivatives were compared to those of DMSO treated control cells and he percent inhibition of invasiveness was determined using the formula: [formula]
Each treatment condition was evaluated in duplicate in 3 independent experiments. IC50 values were calculated by non-linear regression analysis using Graphpad Prisin Software Version 2.0 (Graphpad Software Inc., San Diego, Calif.).

The test system of series [1] is U373 human glioblastoma cell line. Put plainly: MTT cytotoxicity assay, U373 glioblastoma cells. The conditions noted are these: Homo sapiens, U373 MG. The method, then: (§1) The cytotoxicity assay of various compounds against human brain tumor cell lines was performed using the MTT (3-[4,5-dimethylthiazol-2-yl]-2,5-diphenyl tetrazolium bromide) assay (Boehringer Mannheim Corp., Indianapolis, Ind.). Briefly, exponentially growing brain tumor cells were seeded into a 96-well plate at a density of 2.5×10^4 cells/well and incubated for 36 hours at 37° C. prior to drug exposure. […] Triplicate wells were used for each treatment.
Human glioblastoma cell line U373 was obtained from American. Type Culture Collection (Rockville, Md.) and maintained as a continuous cell line in Dulbecco's modified Eagles's medium supplemented with 10% fetal bovine serum and antibiotics. The B-lineage acute lymphoblastic leukemia cell line Nalm-6 was used as a negative control.
(§2) The cells were incubated with the various compounds for 24-36 hours at 37° C. in a humidified 5% CO2 atmosphere. To each well, 10 μl of MTT (0.5 mg/ml final concentration) was added and the plates were incubated at 37° C. for 4 hours to allow MTT to form formazan crystals by reacting with metabolically active cells. The formazan crystals were solubilized overnight at 37° C. in a solution containing 10% SDS in 0.01 M HCl. The absorbence of each well was measured in a microplate reader (Labsystems) at 540 nm and a reference wavelength of 690 nm. To translate the OD540 values into the number of live cells in each well, the OD540 values were compared to those on standard OD540—versus—cell number curves generated for each cell line. The percent survival was calculated using the formula: [formula]
(§3) The IC50 values were calculated by non linear regression analysis.
On the technique in general: Formazan colour is commonly taken as a measure of viable cells.

The test system of series [2] is U373 human glioblastoma cells. The series can be described thus: SCID mouse xenograft model of human glioblastoma. The settings on record: 1 mg/kg/day×10 days i.p. The method, then:
The right hind legs of the CB. 17 SCID mice were inoculated subcutaneously (s.c.) with 0.5×10^6 U373 human glioblastoma cells in 0.2 mL PBS. […] Daily treatments with PBS, unconjugated EGF (1 mg/kg/dose), and unconjugated WHI-P154 (1 mg/kg/dose) were used as controls. Mice were monitored daily for health status and tumor growth, and were sacrificed if they became moribund developed tumors which impeded their ability to attain food or water, at the end of the 3-month observation period. Tumors were measured using Vernier calipers twice weekly, and the tumor volumes were calculated according to the following formula (Friedman, S. H., mDolan, M. E., Pegg, A. E., Marcelli, S., Keir, S., Catino, J. J., Binger, D. D., Schold, S. C., Jr., 1995, Cancer Res., 55:2853-2857): [formula]
For histopathologic studies, tissues were fixed in 10% neutral buffered formalin, dehydrated, and embedded in paraffin by routine methods. Glass slides with affixed 6 micron tissue sections were prepared and stained with hematoxylin/eosin. Primary endpoints of interest were tumor growth and tumor-free survival outcome. Estimation of life table outcome and comparisons of outcome between groups were done, as previously reported (Waurzyniak, et al., 1997, Clinical Cancer Research 3:881-890; Anderson, et al., 1995, Cancer Res. 55:1321-1327; Uckun, et al., 1997, J. Clin. Oncol. 15:2214-2221).
For orientation: Xenograft models place foreign cells or tissue in a host animal.

For the next series, the system named is U373 cells. Put plainly: Adhesion of glioblastoma cells to ECM protein-coated plates. Type of series: cell-based, human. The settings on record: Homo sapiens, U373 MG, 16 hours treatment. The procedure: In vitro adhesion assays were performed to (a) study the baseline adhesive properties of various glioblastoma cell lines and (b) evaluate the effects of quinazoline derivatives on the adhesive properties of glioblastoma cells. The plates for the adhesion assays were precoated with the extracellular matrix proteins laminin, fibronectin or type IV collagen (each at a final concentration of 1 μg/ml in PBS) overnight at 4° C. and dried. On the day of the experiment, the wells were rehydrated and blocked with 10% bovine serum albumin in PBS for 1 hour at room temperature and used for the adhesion assays, as described below.
DMSO (0.1%) was included as a vehicle control. After treatment, cells were detached from the flasks with 0.05% trypsin (Life Technologies) resuspended in DMEM, incubated at 37° C. for 2 hours to allow them to recover from the trypsinization stress and examined for their ability to adhere to plates precoated with ECM proteins.
In adhesion assays, cells were centrifuged, washed twice with serum-free DMEM, counted and resuspended in serum-free DMEM to a final concentration of 2.5×10^5 cells/ml. One hundred μl of the cell suspension containing 2.5×10^4 cells were added to each well and cells were allow d to adhere for 1 hour at 37° C. in a humidified 5% CO2 atmosphere. The adherent fraction was quantitated using MTT (3-[4,5-dimethylthiazol-2-yl]-2,5-diphenyltetrazolium bromide) assays. […] The adherent fractions of cells treated with quinazoline derivatives were compared to those of DMSO-treated control cells and the percent inhibition of adhesion was determined sing the formula: [formula]
Each treatment condition was evaluate d in duplicate in 3 independent experiments.

In another series the test system is NALM-6 leukemia cells. Put plainly: MTT cytotoxicity assay, EGF-R negative leukemia cells (negative control line). Type of series: cell-based. The settings on record: NALM-6; FIG. 5B. The method, then:
Triplicate wells were used for each treatment.
Human glioblastoma cell line U373 was obtained from American.
The percent survival was calculated using the formula: [formula]

For series [3], the system named is U87 human glioblastoma cell line. Put plainly: MTT cytotoxicity assay, U87 glioblastoma cells. Type of series: cell-based. The conditions noted are these: Homo sapiens, unconjugated compound, read-out: IC50 value. The procedure: as §1, §2, §3
Apoptosis was also evaluated using the nick-end-labeling assay, as described for Example 3.

Consider `COc1cc2ncnc(Nc3ccc(O)c(Br)c3)c2cc1OC` [WHI-P154, 4-(3′-Bromo-4′-hydroxylphenyl)-amino-6,7-dimethoxyquinazoline], for which the IC50 in the series with U373 glioblastoma cells (U373, 3 independent experiments, 48 hours, read-out: mean IC50 value, invasion through Matrigel matrix) was 4.46 ± 0.8 µM; in the series with U373 glioblastoma cells (U373, 3 independent experiments, read-out: range of IC50 values, invasion through Matrigel matrix) it was 3.53 to 5.01 µM; in the series with U373 glioblastoma cells (read-out: IC50 value derived from the average values of three experiments, invasion), 5.2 µM; in series [1] (read-out: composite survival curve IC50 value), 158 µM; in series [1] (read-out: mean (±SE) IC50 value), 167 ± 26.9 µM; with U373 cells (N=3, read-out: mean IC50 value, adhesion to collagen-coated plates) it was 42.7 ± 2.5 µM. Further, the IC50 in the series with U373 cells (N=3, read-out: mean IC50 value, adhesion to fibronectin-coated plates) amounted to 29.8 ± 3.1 µM; with U373 cells (N=3, read-out: mean IC50 value, adhesion to laminin-coated plates), 36.1 ± 3.5 µM; in series [3], 179 ± 18.5 µM. Also, the “time at which tumors reached a size of 50 mm^3” value in series [2] came out at 36.0 ± 5.1 days. The molecule also registered a median tumor-free survival in series [2] (N=5) of 19 days. Further, in the series with NALM-6 leukemia cells, the “cytotoxicity against EGF-R negative leukemia cells (in words)” value was “marked cytotoxicity”.
